Laboratory results from the NIST ThermoML archive (doi:10.1016/j.jct.2016.01.006).
Several values for one entry are separate records, joined by “and”; a condition that tells them apart may be missing. Equal values may be shown once.

Conditions: Crystal, Calculated from knudsen effusion weight loss

COC(=O)c1c[nH]c2ccccc12 [methyl 1H-indole-3-carboxylate]
Conditions	vapor or sublimation pressure
353.17 K	0.000108 kPa and 9.8e-05 kPa and 9.7e-05 kPa
355.12 K	0.00013 kPa and 0.000127 kPa and 0.000122 kPa
357.1 K	0.000154 kPa and 0.000153 kPa and 0.000148 kPa
359.16 K	0.000179 kPa and 0.000181 kPa and 0.000189 kPa
361.11 K	0.000232 kPa and 0.000226 kPa and 0.000234 kPa
363.1 K	0.000283 kPa and 0.000285 kPa and 0.000284 kPa
365.16 K	0.000351 kPa and 0.000347 kPa and 0.000371 kPa
367.12 K	0.000439 kPa and 0.000427 kPa and 0.000452 kPa
369.1 K	0.000528 kPa and 0.000531 kPa and 0.000514 kPa
371.16 K	0.000637 kPa and 0.000644 kPa and 0.000707 kPa
373.09 K	0.000799 kPa and 0.000822 kPa and 0.000792 kPa
375.09 K	0.00096 kPa and 0.000992 kPa and 0.000977 kPa

CCOC(=O)c1cc2ccccc2[nH]1 [ethyl 1H-indole-2-carboxylate]
Conditions	vapor or sublimation pressure
326.18 K	7.9e-05 kPa and 7.4e-05 kPa
328.21 K	0.000101 kPa and 9.8e-05 kPa and 9.1e-05 kPa
330.12 K	0.000123 kPa and 0.000122 kPa and 0.000126 kPa
332.18 K	0.000155 kPa and 0.000154 kPa and 0.000157 kPa
334.22 K	0.000202 kPa and 0.000196 kPa and 0.000203 kPa
336.12 K	0.000256 kPa and 0.000249 kPa and 0.000248 kPa
338.18 K	0.000312 kPa and 0.000322 kPa
340.21 K	0.000399 kPa and 0.000394 kPa and 0.00041 kPa
342.12 K	0.000501 kPa and 0.000503 kPa and 0.000504 kPa
344.16 K	0.000627 kPa and 0.000614 kPa and 0.000659 kPa
346.18 K	0.000808 kPa and 0.000835 kPa and 0.000768 kPa
348.11 K	0.000988 kPa and 0.000995 kPa and 0.000981 kPa
